The subject of data set [1] is uterus. Briefly: Uterus growth test in infantile rats (antiestrogenic action), p.o. The following applies: 0.3 mg p.o. once daily over 3 days with 0.5 μg estradiol benzoate s.c., inhibition compared to EB-control. Format: in vivo. The protocol:
The uterus growth test in infantile rats, p.o. (test on antiestrogenic action in vivo) also confirms the antiestrogenic action of the compounds according to the invention. The test was performed as described below:
Uterus Growth Test in Infantile Rats (Antiestrogenic Action)
In rodents, the uterus reacts to the application of estrogens with an increase in weight (both proliferation and water retention). This growth can be inhibited in a dose-dependent manner by simultaneous administration of compounds that have an antiestrogenic action.
Infantile female rats weighing 35-45 g at the beginning of the test, 5-6 animals per dose.
Formulation and Administration of the Substances: […]
For the p.o. administration, the substances are dissolved in 1 part ethanol (E) and made up with 9 parts peanut oil (EÖ).
The young rats just dropped by the mothers are delivered for acclimation one day before the beginning of treatment and immediately supplied with food—right in the cage. […] The moist weight (less contents) is determined from the prepared uteri. […]
The average values are determined with standard deviation (X+SD) and the significance of the differences in the control group (EB) in the Dunnett Test (p<0.05) for each group from the relative organ weights (mg/100 g of body weight). […] The relative actions of the test substances are determined by co-variance analysis and regression analysis.

Data set [2] has as its system MVLN cells. The data set is described as follows: Transactivation assay for antiestrogenic action in MVLN cells (reporter gene Vit-TK-LUC). Particulars: Homo sapiens; MVLN cell line, in the presence of 0.1 nM of estradiol. Format: cell-based. The protocol:
(§1) The antiestrogenic action of the compounds according to the invention was determined in transactivation assays [Demirpence, E.; Duchesne, M.-J.; Badia, E.; Gagne, D. and Pons, M.: MVLN Cells: a Bioluminescent MCF-7-Derived cell Line to Study the Modulation of Estrogenic Activity; J. Steroid. Molec. Biol. Vol. 46, No. 3, 355-364 (1993) and Berry, M.; Metzger, D.; Chambon, P.: Role of the Two Activating Domains of the Estrogen Receptor in the Cell-type and Promoter-context Dependent Agonistic Activity of the Anti-estrogen 4-Hydroxytamoxifen; The EMBO Journal Vol. 9, 2811-2818 (1990)].
The MVLN cells are transfixed in a stable manner with reporter gene Vit-TK-LUC. The antiestrogenic active strength was determined in the presence of 0.1 nM of estradiol.
(§2) The IC50 values for the new compounds are in the nanomolar range. In the MVLN cell line, the following IC50 values are produced for the compound of Examples 3 and 8 (execution of test according to the above-indicated bibliographic references): […]

For data set [3], the system named is HeLa. The data set is described as follows: Transactivation assay for antiestrogenic action in HeLa cells. Format: cell-based. The following applies: Homo sapiens. The protocol: as §1, §2
Data set [4] concerns human estrogen receptor. The data set is described as follows: Partial estrogenic action: transactivation assay, HeLa cells with HEGO and reporter gene rPR-TK-CAT. The following applies: concentration of 1 μm, negative value means suppression of reporter gene activity below controls. The format is cell-based. The protocol:
The partial estrogenic action of compounds according to the invention was determined by transactivation assays. HeLa cells were transfixed with human estrogen receptor expression vector (HEGO) and a reporter gene rPR-TK-CAT. This reporter gene contains the “Estrogen Responsive Element” of the rabbit progesterone receptor gene (+698/+729 region) before a TK-CAT gene (Savouret, J. F.; Bailly, A.; Misrahi, M.; Rauch, C.; Redeuilh, G.; Chauchereau, A.; Milgrom, E., Characterization of the Hormone Responsive Element Involved in the Regulation of the Progesterone Receptor Gene. EMBO J. 10, 1875-1883 (1991).
The estrogenic action was determined at a concentration of 1 μm.

Molecules are shown by their SMILES.

Regarding `CN(CCCCCCCCC(F)(F)C(F)(F)F)CCCCC[C@@H]1Cc2cc(O)ccc2[C@@H]2[C@@H]1[C@@H]1CC[C@H](O)[C@@]1(C)C[C@@H]2F` [Example 3, 11β-Fluoro-7α-{5-[methyl-(9,9,10,10,10-pentafluoro-decyl)-amino]-pentyl}-estra-1,3,5(10)-triene-3,17β-diol], the “Antiuterotrophic action at 0.3 mg [% inhibition]” value in data set [1] is reported as 68 % inhibition. The IC50 in data set [2] came out at 6.3 nM; in data set [3] it was 0.2 nM. Moreover, the “Activation of the rPR-TK Promoter [% estradiol]” value (“Activation … [% estradiol]” below) in data set [4] is listed as −25 % estradiol.
`CN(CCCCCCCC(F)(F)C(F)(F)F)CCCCC[C@@H]1Cc2cc(O)ccc2[C@@H]2[C@@H]1[C@@H]1CC[C@H](O)[C@@]1(C)C[C@@H]2F` yielded a melting point of 110 °C.
Consider `CN(CCCCC[C@@H]1Cc2cc(O)ccc2[C@@H]2[C@@H]1[C@@H]1CC[C@H](O)[C@@]1(C)C[C@@H]2F)CCCC(F)(F)C(F)(F)F` [Example 8, 11β-Fluoro-7α-{5-[methyl-(4,4,5,5,5-pentafluoro-pentyl)-amino]-pentyl}-estra-1,3,5(10)-triene-3,17β-diol], for which the “Antiuterotrophic action at 0.3 mg [% inhibition]” value in data set [1] is reported as 0 % inhibition. Further, the values for the IC50 in data set [2] and in data set [3] were 37 nM and 8 nM, respectively. In data set [4], the “Activation … [% estradiol]” value was found to be 48 % estradiol.
`CN(CCCCCCC(F)(F)C(F)(F)F)CCCCC[C@@H]1Cc2cc(O)ccc2[C@@H]2[C@@H]1[C@@H]1CC[C@H](O)[C@@]1(C)C[C@@H]2F` [Example 12, 11β-Fluoro-7α-{5-[methyl-(7,7,8,8,8-pentafluor-octyl)-amino]-pentyl}-estra-1,3,5(10)-triene-3,17β-diol]: the “Activation … [% estradiol]” value in data set [4] amounted to 34 % estradiol.
Same read-out and setting: next, `CN(CCCCC[C@@H]1Cc2cc(O)ccc2[C@@H]2[C@@H]1[C@@H]1CC[C@H](O)[C@@]1(C)C[C@@H]2F)CCCOCc1ccccc1` [Example 22, 7α-{5-[(3-Benzyloxy-propyl)-methyl-amino]-pentyl}-11β-fluor-estra-1,3,5(10)-triene-3,17β-diol]: 53 % estradiol; `CN(CC=C(F)C(F)(F)C(F)(F)C(F)(F)F)CCCCC[C@@H]1Cc2cc(O)ccc2[C@@H]2[C@@H]1[C@@H]1CC[C@H](O)[C@@]1(C)C[C@@H]2F` [Example 18, 11β-Fluoro-7α-{5-[methyl-(3,4,4,5,5,6,6,6-octafluoro-hex-2-enyl)-amino]-pentyl}-estra-1,3,5(10)-triene-3,17β-diol]: 29 % estradiol.

Source of the values: patent publication US6780855B2, “11β-HALOGEN-7α-SUBSTITUTED ESTRATRIENES, PROCESS FOR THE PRODUCTION OF PHARMACEUTICAL PREPARATIONS THAT CONTAIN THESE 11β-HALOGEN-7α-SUBSTITUTED ESTRATRIENES AS WELL AS THEIR USE FOR THE PRODUCTION OF PHARMACEUTICAL AGENTS” (Schering Aktiengesellschaft, priority 1997, dated 2004).
